The values below come from article PMC2364952, “The Anti-Inflammatory Activity of Boron Derivatives in Rodents” (Metal-Based Drugs, 1995).

The target in test [1] is elastase. Nature of the test: Elastase activity, mouse macrophages. Type of test: cell-based, mouse (J774 macrophages). Particulars: Table 5; read-out: IC50 Elastase, Mouse Macrophage.
Test [2] concerns carrageenan-induced inflammation of paw. Nature of the test: Carrageenan-induced paw edema, rats.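 Further: paw weight increase as percent of control rats.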 Type of test: in vivo, Sprague Dawley male rats. As to conditions: 8 mg/kg x 2, I.P., Table 2.
The target of test [3] is prostaglandin cyclooxygenase. In words: Prostaglandin cyclooxygenase activity, macrophages. Type of test: cell-based, mouse (J774 macrophages). Particulars: Table 7.
Another test concerns cathepsin. Nature of the test: Cathepsin activity, mouse macrophages. Type of test: cell-based, mouse (J774 macrophages). As to conditions: Table 3; read-out: IC50 Cathepsin, Mouse Macrophage.
The test system of test [4] is tail flick response to heat. Nature of the test: Hot plate tail flick screen. The format is in vivo, CF1 male mice. As to conditions: for Mice Tail Flick: 8 mg/kg I.P., hot plate, Table 2; for tail flick assay time: 8 mg/kg.
In test [5] the test system is trypsin. Nature of the test: Trypsin proteolytic activity, mouse macrophages. The format is cell-based, mouse (J774 macrophages). Particulars: Table 5; read-out: IC50 Trypsin, Mouse Macrophage.
Test [6] has as its system acetic acid induced stretch reflex. Nature of the test: Local analgesic screen (acetic acid writhing). Type of test: in vivo, CF1 mice. As to conditions: for Mice Writhing Reflex: 8 mg/kg I.P., Table 2; for reduction of the reflex action: mice, acetic acid induced local pain, 8 mg/kg.
For another test, the target named is acid phosphatase. Nature of the test: Acid phosphatase activity, mouse macrophages. Type of test: cell-based, mouse (J774 macrophages). Particulars: Table 3; read-out: IC50 Acid Phosphatase, Mouse Macrophage.
In a further test the target is aryl sulphatase. In words: Aryl sulfatase activity, mouse macrophages. The format is cell-based, mouse (J774 macrophages). Particulars: Table 3; read-out: IC50 Aryl Sulfatase, Mouse Macrophage.
Test [7] concerns carrageenan-induced pleural fluid. Nature of the test: Anti-pleurisy screen.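 On Rat Pleurisy: Pleural fluid volume as percent of control rats.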 Type of test: in vivo, Sprague Dawley male rats. As to conditions: for pleurisy edema in rats: 8 mg/kg; for Rat Pleurisy: rats, 8 mg/kg I.P., 1 h before and 3 h after carrageenan, Table 2.
In test [8] the test system is carrageenan-induced inflammation of hind foot. In words: Carrageenan-induced foot edema, mice. Type of test: in vivo, CF1 male mice. Particulars: for reduction of induced edema: 8 mg/kg x 2, I.P., carrageenan.
For test [9], the system named is adjuvant (M. butyricum) arthritis. In words: Chronic adjuvant arthritic screen. The format is in vivo. Particulars: rats; for activity in chronic arthritis screen / reduction of pannus: 8 mg/kg/day; for Rat Chronic Arthritis: 8 mg/kg/day I.P., Day 3 to Day 21, Table 2.
Test [10] deals with elastase. Nature of the test: Elastase activity, UMR-106 osteosarcoma cells. As to conditions: Table 6; read-out: IC50 Elastase, Rat UMR-106 Bone Osteosarcoma. The format is cell-based.
Test [11] has as its system trypsin. In words: Trypsin activity, UMR-106 osteosarcoma cells. The format is cell-based. Particulars: Table 6; read-out: IC50 Trypsin, Rat UMR-106 Bone Osteosarcoma.
Another test has as its system neutral cathepsin. In words: Cathepsin activity, UMR-106 osteosarcoma cells. The format is cell-based. Particulars: Table 6; read-out: IC50 Neutral Cathepsin, Rat UMR-106 Bone Osteosarcoma.
Test [12] concerns prostaglandin cyclooxygenase. In words: Prostaglandin cyclooxygenase activity, Be Sal cells. As to conditions: Table 7; read-out: IC50 Prostaglandin Cyclooxygenase, Be Sal Osteofibro. Type of test: cell-based, human (Be Sal osteofibrolytic cells).

Molecules are shown by their SMILES.

For `C[N+](C)(C)[BH2-]C(=O)NO.[H+].c1ccc([B-](c2ccccc2)(c2ccccc2)c2ccccc2)cc1` [Compound 76], the IC50 at elastase [1] is 4.83 µM; in test [3], 1.61 µM; in the test with cathepsin, 1.69 µM; in the test on trypsin [5], 2.06 µM; at acid phosphatase it was 3.96 µM; on aryl sulphatase, 1.37 µM. Besides, in [2], the “Rat Inflammatory” value was 60 % of control. The “Mice Tail Flick” value in [4] is 258 % of control. Also, the “tail flick assay time” value in test [4] (mice) is “increased”. Further, the “blocking central pain compared with morphine” value in test [4] (mice, tail flick) is given as “as effective as morphine”. In addition, in [6], the “Mice Writhing Reflex” value is 45 % of control. Moreover, in test [6], the “reduction of the reflex action” value is given as “at least 45%”. Besides, the “pleurisy edema in rats” value in test [7] is “reduced significantly”. Moreover, the “Rat Pleurisy” value in test [7] is 50 % of control. In addition, the “reduction of induced edema” value in test [8] (mice) is reported as “at least 40%”.

For the compound `[BH3-][NH+]1CCOCC1` [Compound 78], the IC50 at elastase [1] was determined as 5.94 µM; in test [3], 1.47 µM; with cathepsin, 0.76 µM; in the test with trypsin [5], 2.39 µM; on acid phosphatase it was 3.18 µM. For the same compound, the “Rat Inflammatory” value in [2] is 83 % of control. Further, the “Mice Writhing Reflex” value in test [6] is 15 % of control. In addition, the “reduction of the reflex action” value in test [6] was 80%. The “activity in chronic arthritis screen” value in test [9] is recorded as “significantly active”. In addition, in [9], the “Rat Chronic Arthritis” value is listed as 33 % of control. The “reduction of induced edema” value in [8] (mice) amounted to 45%.

For the compound `COc1ccc2c(c1)c(CC(=O)O)c(C)n2C(=O)c1ccc(Cl)cc1` [Indomethacin, indomethacin, reference compound], the “Rat Inflammatory” value in test [2] is recorded as 78 % of control. In addition, the “Mice Writhing Reflex” value in test [6] is recorded as 43 % of control. The “Rat Chronic Arthritis” value in test [9] is 55 % of control. Also, in [7], the “Rat Pleurisy” value is 12 % of control. Moreover, the “inhibition of induced inflammation” value in test [8] (standards at their therapeutic dose (indomethacin 8 mg/kg x 2, pentoxifylline and phenylbutazone 50 mg/kg x 2)) is 26%.

For `CC[N+]#C[BH2-][N+](C)(C)C.F[B-](F)(F)F` [Compound 74], the IC50 on elastase [1] was 2.32 µM; in test [3], 1.52 µM; in the test with cathepsin, 9.13 µM; with elastase [10] it was 10 µM; in the test with trypsin [11] it was 10.5 µM; with trypsin [5], 1.83 µM. In addition, the results for the IC50 on acid phosphatase, at aryl sulphatase and with neutral cathepsin were 1.31 µM, 6.03 µM and 6.55 µM, respectively. In test [2], the “Rat Inflammatory” value was 81 % of control. Besides, the “Mice Writhing Reflex” value in [6] was 40 % of control. Besides, in test [6], the “reduction of the reflex action” value was “at least 45%”. In addition, the “reduction of induced edema” value in [8] (mice) is recorded as “at least 40%”.

Regarding `C[N+](C)(C)[BH2-]C(=O)NO.Cl` [Compound 77], the IC50 turned out to be 1.49 µM at elastase [1]; 7.72 µM in test [3]; 5.13 µM in the test on cathepsin; 2.14 µM in the test with trypsin [5]; 1.09 µM in [12]; 6.59 µM at acid phosphatase. Besides, the IC50 on aryl sulphatase was determined as 1.4 µM. Also, the “Mice Tail Flick” value in test [4] was 139 % of control. Also, the “Mice Writhing Reflex” value in test [6] is reported as 41 % of control. Besides, in [6], the “reduction of the reflex action” value is recorded as “at least 45%”.

Consider `[BH3-][NH2+]C(C)(C)C` [Compound 1], for which the IC50 at elastase [1] was found to be 0.22 µM; in [3], 4.19 µM; with cathepsin, 4.62 µM; in the test with elastase [10], 9.26 µM; in the test on trypsin [11], 7.74 µM; in the test on trypsin [5], 2.09 µM. In addition, the IC50 at acid phosphatase came out at 8.08 µM; in the test with neutral cathepsin, 4.67 µM. Further, the “Mice Writhing Reflex” value in [6] is recorded as 19 % of control. The “reduction of the reflex action” value in test [6] is 80%.

For the compound `O=C(O)[BH2-][NH+]1CCOCC1` [Compound 83], the IC50 at elastase [1] came out at 0.96 µM; in the test on cathepsin, 1.76 µM; in the test on elastase [10] it was 8.09 µM; in the test on trypsin [11], 9.89 µM; in the test with trypsin [5] it was 2.37 µM; on acid phosphatase it was 0.16 µM. For the same compound, the IC50 was found to be 7.59 µM at aryl sulphatase and 5.41 µM in the test on neutral cathepsin. In addition, the “reduction of induced edema” value in test [8] (mice) is “at least 30%”.

For the compound `C[NH2+][BH2-]C(=O)O` [Compound 2], the IC50 turned out to be 2.32 µM on elastase [1]; 3.5 µM in [3]; 9.45 µM in the test on cathepsin; 8.94 µM with elastase [10]; 9.89 µM in the test with trypsin [11]; 2.34 µM with trypsin [5]. Also, the IC50 at acid phosphatase worked out at 0.9 µM; on aryl sulphatase, 8.3 µM; in the test on neutral cathepsin it was 5.82 µM. The “Rat Inflammatory” value in [2] was 70 % of control. The “Mice Tail Flick” value in [4] is 147 % of control. Moreover, in test [4] (mice), the “tail flick assay time” value is reported as “increased”. The “Mice Writhing Reflex” value in [6] is 31 % of control. Also, in test [6], the “reduction of the reflex action” value was “at least 45%”. Moreover, the “activity in chronic arthritis screen” value in [9] is “significantly active”. Moreover, the “Rat Chronic Arthritis” value in [9] is recorded as 53 % of control. Besides, the “pleurisy edema in rats” value in test [7] was “reduced significantly”. Further, the “Rat Pleurisy” value in [7] is 61 % of control.

As for `CCCCCCCCCCCCCCCC[N+](C)(C)[BH2-]C#N` [Compound 35], the IC50 at elastase [1] stood at 2.75 µM; in the test on cathepsin, 4.97 µM; in the test with elastase [10] it was 9.19 µM; with trypsin [11] it was 7.28 µM; in the test on trypsin [5], 2.69 µM; on acid phosphatase it was 0.33 µM. Moreover, the IC50 is 7.16 µM at aryl sulphatase and 6.31 µM in the test on neutral cathepsin. Besides, the “Mice Writhing Reflex” value in [6] was 16 % of control. For the same compound, in test [6], the “reduction of the reflex action” value is listed as 80%.

Regarding `C[N+](C)([BH2-]C(=O)O)CC[N+](C)(C)[BH2-]C(=O)O` [Compound 7], the IC50 on elastase [1] was 2.76 µM; in test [3], 1.85 µM; in the test with cathepsin, 8.37 µM; with trypsin [5], 2.33 µM; on acid phosphatase it was 3.32 µM. Besides, in test [6], the “Mice Writhing Reflex” value is recorded as 55 % of control. The “reduction of the reflex action” value in test [6] is recorded as “at least 45%”. Also, the reduction of pannus result in test [9] is recorded as “greater than 75%”. Further, in test [9], the “Rat Chronic Arthritis” value is 24 % of control.

As to `COC(=O)[BH2-][N+](C)(C)C` [Compound 16], the IC50 on elastase [1] was found to be 8.76 µM; in test [3] it was 2.41 µM; in the test on cathepsin it was 8.28 µM; with trypsin [5] it was 3.23 µM; at acid phosphatase, 3.55 µM; on aryl sulphatase, 17.6 µM. Moreover, the “Rat Inflammatory” value in test [2] was 71 % of control. Besides, the “Mice Tail Flick” value in test [4] is 180 % of control. For the same compound, the “tail flick assay time” value in test [4] (mice) is “increased”. In test [6], the “Mice Writhing Reflex” value is listed as 2 % of control. The “reduction of the reflex action” value in test [6] amounted to 80%. For the same compound, in test [7], the “pleurisy edema in rats” value is given as “reduced significantly”. In addition, the “Rat Pleurisy” value in test [7] is 45 % of control. In [8] (mice, 8 mg/kg x 2), the “anti-inflammatory activity in mouse edema screen” value is reported as “less active”.

In the case of `CCOC(=O)[BH2-][NH+](C)C` [Compound 20], the IC50 worked out at 3.28 µM on elastase [1]; 3.94 µM in the test on cathepsin; 10.3 µM with elastase [10]; 9.18 µM with trypsin [11]; 2.02 µM with trypsin [5]; 1.12 µM at acid phosphatase. Further, the concentration for half-maximal inhibition (IC50) on aryl sulphatase turned out to be 9.27 µM; with neutral cathepsin, 6.62 µM. Moreover, the “reduction of the reflex action” value in [6] is reported as “at least 45%”. Further, the reduction of pannus result in [9] is “greater than 75%”. In addition, in test [9], the “Rat Chronic Arthritis” value is recorded as 13 % of control. In addition, the “pleurisy edema in rats” value in test [7] is reported as “reduced significantly”. The “Rat Pleurisy” value in test [7] was 61 % of control.
